How the values were obtained:
Type in all cases: biochemical
[1] = molecular target: T1, human JAK3 (aa 795-1124) catalytic domain (Homo sapiens, UniProt P52333); assay: In vitro JAK kinase assay (TR-FRET), JAK3; conditions: ATP 0.6 μM, peptide 140 nM, 30 minutes at room temperature
T1 construct: JAK3 (aa 795-1124); purchased Carna Biosciences; host or cells: baculovirus expression system (insect cells)
Method: (§1) Compounds were screened for their ability to inhibit JAK1, JAK2 and JAK3 using the assays as indicated below.
(§2) The catalytic domains of human JAK1 (aa 850-1154), JAK2 (aa 826-1132), JAK3 (aa 795-1124) and Tyk2 (aa 871-1187) were expressed as N-terminal GST-fusion proteins using a baculovirus expression system and were purchased from Carna Biosciences. The enzymatic activity was assayed using as substrate a biotinylated peptide, poly (GT)-Biotin (CisBio). The peptide concentration in the reactions was 60 nM for JAK1, 20 nM for JAK2, 140 nM for JAK3 and 50 nM for Tyk2. The degree of phosphorylation was detected by TR-FRET (time-resolved fluorescence energy transfer).
(§3) IC50s of compounds were measured for each kinase in a reaction mixture containing the enzyme, ATP and the peptide in 8 mM MOPS (pH 7.0), 10 mM MgCl2, 0.05% β-mercaptoethanol, 0.45 mg/ml BSA. The ATP concentration in the reactions was 3 μM for JAK1, 0.2 μM for JAK2, 0.6 μM for JAK3 and 1.8 μM for Tyk2. The enzymatic reactions took place for 30 minutes at room temperature. Then, the reactions were stopped with 20 μL of quench detection buffer (50 mM HEPES, 0.5 M KF, EDTA 0.25 M, 0.1% (w/v) BSA, pH 7.5) containing 0.115 μg/mL of anti-phosphoTyr (PT66)-Cryptate (CisBio) and a variable concentration of SA-XL665 (CisBio) to keep the SA-B ratio constant. Incubate for 3 h and read on Victor 2V spectrofluorometer (Perkin Elmer) set to read fluorescence resonance energy transfer.

[2] = molecular target: T2, human JAK2 (aa 826-1132) catalytic domain (Homo sapiens, UniProt O60674); assay: In vitro JAK kinase assay (TR-FRET), JAK2; conditions: ATP 0.2 μM, peptide 20 nM, 30 minutes at room temperature
T2 construct: JAK2 (aa 826-1132); purchased Carna Biosciences; host or cells: baculovirus expression system (insect cells)
T2 sequence (O60674 826-1132): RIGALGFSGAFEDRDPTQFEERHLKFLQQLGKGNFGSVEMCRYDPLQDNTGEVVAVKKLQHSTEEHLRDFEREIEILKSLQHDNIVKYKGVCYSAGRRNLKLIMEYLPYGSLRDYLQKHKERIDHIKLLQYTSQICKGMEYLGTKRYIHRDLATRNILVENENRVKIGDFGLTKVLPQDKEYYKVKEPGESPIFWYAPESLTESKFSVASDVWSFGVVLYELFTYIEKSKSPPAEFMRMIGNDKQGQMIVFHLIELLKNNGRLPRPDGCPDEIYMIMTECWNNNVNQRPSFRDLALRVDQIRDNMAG
Method: as §1, §2, §3

[3] = molecular target: T3, human JAK1 (aa 850-1154) catalytic domain (Homo sapiens, UniProt P23458); assay: In vitro JAK kinase assay (TR-FRET), JAK1; conditions: ATP 3 μM, peptide 60 nM, 30 minutes at room temperature
T3 construct: human JAK1 (aa 850-1154); purchased Carna Biosciences; host or cells: baculovirus expression system (insect cells)
T3 sequence (P23458 850-1154): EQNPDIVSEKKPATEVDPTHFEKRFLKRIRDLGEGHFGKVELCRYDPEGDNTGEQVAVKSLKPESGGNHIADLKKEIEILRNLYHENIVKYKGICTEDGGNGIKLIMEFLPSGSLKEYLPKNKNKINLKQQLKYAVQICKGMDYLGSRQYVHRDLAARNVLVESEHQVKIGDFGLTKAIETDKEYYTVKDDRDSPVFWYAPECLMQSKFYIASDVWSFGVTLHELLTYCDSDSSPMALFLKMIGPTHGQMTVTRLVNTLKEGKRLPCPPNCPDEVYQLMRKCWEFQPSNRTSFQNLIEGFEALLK
Method: as §1, §2, §3

T1 sequence (P52333 795-1124): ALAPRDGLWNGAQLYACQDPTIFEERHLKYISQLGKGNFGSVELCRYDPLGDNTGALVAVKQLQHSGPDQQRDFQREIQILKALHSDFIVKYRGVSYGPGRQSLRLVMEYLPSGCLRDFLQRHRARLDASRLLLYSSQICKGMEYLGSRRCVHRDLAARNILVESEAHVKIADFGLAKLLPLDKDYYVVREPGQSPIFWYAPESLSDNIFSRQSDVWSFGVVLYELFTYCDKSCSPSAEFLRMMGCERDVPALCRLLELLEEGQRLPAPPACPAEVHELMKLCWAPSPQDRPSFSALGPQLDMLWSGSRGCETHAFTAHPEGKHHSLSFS

| SMILES | IC50 [1] [nM] | IC50 [2] [nM] | IC50 [3] [nM] |
| --- | --- | --- | --- |
| O=c1[nH]cccc1Nc1nccc(N[C@H]2CC[C@H](CS(=O)(=O)N3CCCC(O)C3)CC2)n1 (relative stereo) [Example 14, 3-({4-[(trans-4-{[(3-hydroxypiperidin-1-yl)sulfonyl]methyl}cyclohexyl)amino]pyrimidin-2-yl}amino)pyridin-2(1H)-one] | 100 to 1000 | < 100 | > 1000 |
| N#CCC(=O)N1CCC[C@@H](Nc2nc(Nc3ccc[nH]c3=O)ncc2F)C1 [Example 17, (R)-3-(3-(5-Fluoro-2-(2-oxo-1,2-dihydropyridin-3-ylamino)pyrimidin-4-ylamino)piperidin-1-yl)-3-oxopropanenitrile] | < 100 | < 100 | < 100 |
| O=c1[nH]cccc1Nc1ncc(F)c(N[C@@H]2CCCN(c3nnc[nH]3)C2)n1 [Example 18, (R)-3-(4-(1-(4H-1,2,4-Triazol-3-yl)piperidin-3-ylamino)-5-fluoropyrimidin-2-ylamino) pyridin-2(1H)-one] | < 100 | < 100 | 100 to 1000 |
| N#CCC(=O)N1CCC[C@@H](Nc2nc(Nc3ccc[nH]c3=O)nc(N3CCOCC3)c2F)C1 [Example 20, 3-[(3R)-3-({5-fluoro-6-morpholin-4-yl-2-[(2-oxo-1,2-dihydropyridin-3-yl)amino]pyrimidin-4-yl}amino)piperidin-1-yl]-3-oxopropanenitrile] | < 100 | < 100 | < 100 |
| Cc1c(Nc2ccc[nH]c2=O)nc(N[C@@H]2CCCN(C(=O)CC#N)C2)nc1N1CCOCC1 [Example 22, 3-[(3R)-3-({5-methyl-4-morpholin-4-yl-6-[(2-oxo-1,2-dihydropyridin-3-yl)amino]pyrimidin-2-yl}amino)piperidin-1-yl]-3-oxopropanenitrile] | < 100 | < 100 | < 100 |

Next, values leading:

| IC50 [1] [nM] | IC50 [2] [nM] | IC50 [3] [nM] | SMILES |
| --- | --- | --- | --- |
| < 100 | < 100 | < 100 | COc1cnc(Nc2ccc[nH]c2=O)nc1N[C@@H](C)c1ccc(F)cn1 [Example 4, 3-[(4-{[(1S)-1-(5-fluoropyridin-2-yl)ethyl]amino}-5-methoxypyrimidin-2-yl)amino]pyridin-2(1H)-one] |
| < 100 | < 100 | < 100 | C[C@H](Nc1nc(Nc2ccc[nH]c2=O)ncc1O)c1ccc(F)cn1 [Example 5, 3-[(4-{[(1S)-1-(5-fluoropyridin-2-yl)ethyl]amino}-5-hydroxypyrimidin-2-yl)amino]pyridin-2(1H)-one] |
| < 100 | < 100 | 100 to 1000 | C[C@H](Nc1nc(Nc2ccc[nH]c2=O)ncc1C(N)=O)c1ccc(F)cn1 [Example 6, (S)-4-(1-(5-fluoropyridin-2-yl)ethylamino)-2-(2-oxo-1,2-dihydropyridin-3-ylamino) pyrimidine-5-carboxamide] |
| < 100 | < 100 | < 100 | Cc1cnc(Nc2cc(Cl)c[nH]c2=O)nc1N[C@@H](C)c1ccc(F)cn1 [Example 7, (S)-5-chloro-3-(4-(1-(5-fluoropyridin-2-yl)ethylamino)-5-methylpyrimidin-2-ylamino)pyridin-2(1H)-one] |
| < 100 | < 100 | < 100 | C[C@H](Nc1cncc(Nc2ccc[nH]c2=O)n1)c1ccc(F)cn1 [Example 11, 3-[(6-{[(1S)-1-(5-Fluoropyridin-2-yl)ethyl]amino}pyrazin-2-yl)amino]pyridin-2(1H)-one] |
| < 100 | < 100 | 100 to 1000 | C[C@H](Nc1cccc(Nc2ccc[nH]c2=O)n1)c1ccc(F)cn1 [Example 12] |
| < 100 | < 100 | < 100 | Cc1cnc(Nc2ccc[nH]c2=O)nc1N[C@H]1CC[C@H](CC#N)CC1 [Example 13, 2-((1r,4r)-4-(5-Methyl-2-(2-oxo-1,2-dihydropyridin-3-ylamino)pyrimidin-4-ylamino)cyclohexyl)acetonitrile] |
